Reference: US20080267882A1, “Imaging compounds, methods of making imaging compounds, methods of imaging, therapeutic compounds, methods of making therapeutic compounds, and methods of therapy” (Stanford University, priority 2007, published 2008)
Several values for one entry are separate records, joined by “and”; a condition that tells them apart may be missing. Identical values can stand only once.

Legend:
integrin αvβ3 = molecular target: T1, integrin αvβ3 (Homo sapiens, UniProt P05106+P06756); assay: competitive cell binding assay using ^125I-echistatin on U87MG cells; details: Example 4; n=3; read-out: IC50 (inhibition of ^125I-echistatin binding to U87MG cells)
T1 construct: evaluated using U87MG cells (integrin αvβ3-positive); endogenous in cells; host or cells: U87MG human glioblastoma cells (ATCC)
Description: Experiments were performed on U87MG human glioblastoma cells with triplicate samples as previously reported.
In vitro integrin αvβ3-binding affinities and specificities of RGD4, PRGD4 and FPRGD4 were assessed via displacement cell binding assays using ^125I-echistatin as the integrin αvβ3-specific radioligand. Experiments were performed on U87MG human glioblastoma cells by the method previously described (J Nucl Med. 2005;46:1707-1718 J Nucl Med. 2006;47:1172-1180, which is incorporated herein by reference for the corresponding discussion). […] Experiments were performed with triplicate samples.
Experiments were performed with triplicate samples.
In vitro integrin-binding affinity and specificity of RGD multimers and DOTA-RGD multimers were assessed via competitive cell binding assays using ^125I-echistatin as the integrin αvβ3-specific radioligand (J Nucl Med. 2005;46:1707-1718, which is incorporated herein by reference for the corresponding discussion). […] Experiments were performed with triplicate samples.

[1] = test system: MDA-MB-435 tumor-bearing mice; assay: biodistribution of ^3H-PTX and ^3H-RGD2−PTX in MDA-MB-435 tumor-bearing mice; type: in vivo, mouse
Description: All animal experiments were performed in compliance with the guidelines for the care and use of research animals established by the Stanford University's Animal Studies Committee. Female athymic nude mice (nu/nu) were obtained from Harlan (Indianapolis, Ind.) at 6-8 weeks of age and were kept under sterile conditions. The MDA-MB-435 cells were harvested and suspended in sterile PBS at a concentration of 5×10^7 cells/mL. Viable cells (5×10^6) in PBS (100 μL) were injected orthotopically in the right mammary fat pad. […] Tumor growth was followed by caliper measurements of perpendicular measures of the tumor. The tumor volume was estimated by the formula: tumor volume=a×(b^2)/2, where a and b are the tumor length and width respectively in mm.
The animals were euthanized at 4, 24 and 48 h post injection and major organs and tissues were collected correspondingly. Approximately 100 mg of the tissue was added to glass scintillation vials containing 1 mL of tissue solubilizer SoluEne®-350 (Perkin-Elmer, Waltham, Mass.). These samples were digested at 55° C. for overnight followed by bleaching to obtain the decolorized samples. Chemiluminescence was reduced by the addition of glacial acetic acid. Hionic-Fluor liquid scintillation cocktail (Perkin-Elmer) was added to all samples, which were then counted with a Tri-Carb 2800TR liquid scintillation Analyzer (Perkin-Elmer).

in vivo = details: mouse, iv, 3.7 MBq, total radioactivity, U87MG tumor uptake
Description: PET scans and image analysis were performed using a microPET R4 rodent model scanner (Siemens Medical Solutions) as previously reported (J Nucl Med 2006;47:113-121 and J Nucl Med 2005;46:1707-1718, each of which is incorporated herein by reference for the corresponding discussion). Each mouse was tail-vein injected with about 3.7 MBq (100 μCi) of ^18F-FPRGD2 under isoflurane anesthesia. The 30-min dynamic scan (1×30 s, 4×1 min, 1×1.5 min, 4×2 min, 1×2.5 min, 4×3 min, total of 15 frames) was started 1 min after injection. Five min static PET images were also acquired at 1 h and 2 h post-injection (p.i.). The images were reconstructed by a 2-dimensional ordered-subsets expectation maximum (OSEM) algorithm and no correction was applied for attenuation or scatter.
PET scans and image analysis were performed using a microPET R4 rodent model scanner (Siemens Medical Solutions) as previously reported. For U87MG tumor model, mice (n=3) were tail-vein injected with about 3.7 MBq (100 μCi) of ^18F-FPRGD4 under isoflurane anesthesia and then subjected to a 30-min dynamic scan (1×30 s, 4×1 min, 1×1.5 min, 4×2 min, 1×2.5 min, 4×3 min, total of 15 frames) starting from 1 min p.i. Five min static PET images were also acquired at 1, 2, and 3 h p.i. The images were reconstructed by 2-dimensional ordered-subsets expectation maximum (OSEM) algorithm. No attenuation or scatter correction was applied. […] The 5-min static PET scans was then acquired at 30 min and 1 h p.i. Multiple time point static scans were also obtained for orthotopic MDA-MB-435, c-neu oncomouse, and subcutaneous DU145 tumor models after tail-vein injected with 3.7 MBq of ^18F-FPRGD4.
For each microPET scan, regions of interest (ROIs) were drawn over the tumor, normal tissue, and major organs by using vendor software (ASI Pro 5.2.4.0) on decay-corrected whole-body coronal images. The maximum radioactivity concentration (accumulation) within a tumor or an organ was obtained from mean pixel values within the multiple ROI volume, which were converted to counts/mL/min by using a conversion factor. Assuming a tissue density of 1 g/mL, the ROIs were converted to counts/g/min and then divided by the administered activity to obtain an imaging ROI-derived % ID/g. […]
PET scans and image analysis were performed using a microPET R4 rodent model scanner (Siemens Medical Solutions) as previously reported (J Nucl Med. 2005;46:1707-1718 and J Nucl Med. 2006;47:113-121, each of which is incorporated herein by reference for the corresponding discussion). About 9.3 MBq of ^64Cu-DOTA-RGD multimer was intravenously injected into each mouse under isoflurane anesthesia. Five minute static scans were acquired at 30 min, 1 h, 2 h, 6 h, and 20 h p.i. The images were reconstructed by a 2-dimensional ordered-subsets expectation maximum (OSEM) algorithm and no correction was applied for attenuation and scatter. For each microPET scan, regions of interest (ROIs) were drawn over the tumor, normal tissue, and major organs on decay-corrected whole-body coronal images. The radioactivity concentration (accumulation) within a tumor was obtained from the maximum value within the multiple ROIs and then converted to % ID/g.
PET scans and image analysis were performed using a microPET R4 rodent model scanner (Siemens Medical Solutions) as previously reported (J Nucl Med. 2006;47:113-21 and J Nucl Med. 2005;46:1707-18, which is incorporated herein by reference for the corresponding discussion). […] The 60-min dynamic scan (5×1 min, 10×3 min, 5×5 min, total of 20 frames) was started 1 min after injection. A 2 h time point static scan was also acquired after the 60 min dynamic scan. Five min static PET images were also acquired separately at 30 min, 1 h and 2 h time points post-injection (p.i.) for another set of tumor-bearing mice (n=3/tracer). The images were reconstructed by a 2-dimensional ordered-subsets expectation maximum (OSEM) algorithm and no correction was necessary for attenuation or scatter correction. […]

## N=C(N)NCCC[C@@H]1NC(=O)[C@H](CCCCNC(=O)CC[C@H](NC(=O)CC[C@H](NC(=O)CC[C@H](NC(=O)CN2CCN(CC(=O)O)CCN(CC(=O)O)CCN(CC(=O)O)CC2)C(=O)N[C@@H](CCC(=O)N[C@@H](CCC(=O)NCCCC[C@@H]2NC(=O)[C@@H](Cc3ccc(O)cc3)NC(=O)[C@H](CC(=O)O)NC(=O)CNC(=O)[C@H](CCCNC(=N)N)NC2=O)C(=O)NCCCC[C@@H]2NC(=O)[C@@H](Cc3ccc(O)cc3)NC(=O)[C@H](CC(=O)O)NC(=O)CNC(=O)[C@H](CCCNC(=N)N)NC2=O)C(=O)N[C@@H](CCC(=O)NCCCC[C@@H]2NC(=O)[C@@H](Cc3ccc(O)cc3)NC(=O)[C@H](CC(=O)O)NC(=O)CNC(=O)[C@H](CCCNC(=N)N)NC2=O)C(=O)NCCCC[C@@H]2NC(=O)[C@@H](Cc3ccc(O)cc3)NC(=O)[C@H](CC(=O)O)NC(=O)CNC(=O)[C@H](CCCNC(=N)N)NC2=O)C(=O)N[C@@H](CCC(=O)NCCCC[C@@H]2NC(=O)[C@@H](Cc3ccc(O)cc3)NC(=O)[C@H](CC(=O)O)NC(=O)CNC(=O)[C@H](CCCNC(=N)N)NC2=O)C(=O)NCCCC[C@@H]2NC(=O)[C@@H](Cc3ccc(O)cc3)NC(=O)[C@H](CC(=O)O)NC(=O)CNC(=O)[C@H](CCCNC(=N)N)NC2=O)C(=O)NCCCC[C@@H]2NC(=O)[C@@H](Cc3ccc(O)cc3)NC(=O)[C@H](CC(=O)O)NC(=O)CNC(=O)[C@H](CCCNC(=N)N)NC2=O)NC(=O)[C@@H](Cc2ccc(O)cc2)NC(=O)[C@H](CC(=O)O)NC(=O)CNC1=O [DOTA-RGD octamer]
Integrin αvβ3
  IC50: 11 nM

## N=C(N)NCCC[C@@H]1NC(=O)[C@H](CCCCNC(=O)CC[C@H](NC(=O)CC[C@H](NC(=O)CN2CCN(CC(=O)O)CCN(CC(=O)O)CCN(CC(=O)O)CC2)C(=O)N[C@@H](CCC(=O)NCCCC[C@@H]2NC(=O)[C@@H](Cc3ccc(O)cc3)NC(=O)[C@H](CC(=O)O)NC(=O)CNC(=O)[C@H](CCCNC(=N)N)NC2=O)C(=O)NCCCC[C@@H]2NC(=O)[C@@H](Cc3ccc(O)cc3)NC(=O)[C@H](CC(=O)O)NC(=O)CNC(=O)[C@H](CCCNC(=N)N)NC2=O)C(=O)NCCCC[C@@H]2NC(=O)[C@@H](Cc3ccc(O)cc3)NC(=O)[C@H](CC(=O)O)NC(=O)CNC(=O)[C@H](CCCNC(=N)N)NC2=O)NC(=O)[C@@H](Cc2ccc(O)cc2)NC(=O)[C@H](CC(=O)O)NC(=O)CNC1=O [DOTA-RGD tetramer]
Integrin αvβ3
  IC50: 28 nM

## CC(=O)O[C@H]1C(=O)[C@@]2(C)[C@H]([C@H](OC(=O)c3ccccc3)[C@]3(O)C[C@H](OC(=O)[C@H](O)[C@@H](NC(=O)c4ccccc4)c4ccccc4)C(C)=C1C3(C)C)[C@]1(OC(C)=O)CO[C@@H]1C[C@@H]2O [^3H-PTX, reference compound]
[1]; 4 h
  tissue concentration, Blood: 67.1 ± 9.8 ng/g
  tissue concentration, Intestine: 274.1 ± 110.1 ng/g
  tissue concentration, Kidney: 339.6 ± 67.6 ng/g
  tissue concentration, Liver: 2389.3 ± 408.8 ng/g
  tissue concentration, Lung: 329.2 ± 18.2 ng/g
  tissue concentration, MDA-MB-435 tumor: 239.0 ± 56.2 ng/g
  tissue concentration, Muscle: 257.3 ± 32.2 ng/g
  tissue concentration, Skin: 135.1 ± 23.5 ng/g
  tissue concentration, Spleen: 365.5 ± 118.5 ng/g
  tissue concentration, Stomach: 180.7 ± 15.7 ng/g
[1]; 24 h
  tissue concentration, Blood: 42.7 ± 14.7 ng/g
  tissue concentration, Intestine: 14.4 ± 2.5 ng/g
  tissue concentration, Kidney: 38.0 ± 13.3 ng/g
  tissue concentration, Liver: 123.4 ± 12.2 ng/g
  tissue concentration, Lung: 35.2 ± 5.4 ng/g
  tissue concentration, MDA-MB-435 tumor: 85.6 ± 15.2 ng/g
  tissue concentration, Muscle: 41.1 ± 17.2 ng/g
  tissue concentration, Skin: 24.6 ± 3.2 ng/g
  tissue concentration, Spleen: 51.6 ± 7.6 ng/g
  tissue concentration, Stomach: 24.4 ± 4.7 ng/g
[1]; 24 h compared with 4 h
  decrease of concentration in the tumor: around 3 fold
  drop of concentration in kidneys: 9 fold
  drop of concentration in the liver: 20 fold
[1]; 48 h
  tissue concentration, Blood: 35.0 ± 1.5 ng/g
  tissue concentration, Intestine: 12.8 ± 7.0 ng/g
  tissue concentration, Kidney: 35.7 ± 2.0 ng/g
  tissue concentration, Liver: 132.6 ± 31.9 ng/g
  tissue concentration, Lung: 47.9 ± 8.8 ng/g
  tissue concentration, MDA-MB-435 tumor: 45.8 ± 1.69 ng/g and 45.8 ± 1.7 ng/g
  tissue concentration, Muscle: 35.4 ± 10.7 ng/g
  tissue concentration, Skin: 25.4 ± 9.3 ng/g
  tissue concentration, Spleen: 36.4 ± 8.4 ng/g
  tissue concentration, Stomach: 17.2 ± 4.0 ng/g
[1]; 48 h compared with 4 h
  decrease of concentration in the tumor: 5.2 fold

## N=C(N)NCCC[C@@H]1NC(=O)[C@H](CCCCNC(=O)CC[C@H](NC(=O)CC[C@H](NC(=S)Nc2ccc(C[C@H]3CN(CC(=O)O)CCN(CC(=O)O)CCN3CC(=O)O)cc2)C(=O)N[C@@H](CCC(=O)NCCCC[C@@H]2NC(=O)[C@@H](Cc3ccc(O)cc3)NC(=O)[C@H](CC(=O)O)NC(=O)CNC(=O)[C@H](CCCNC(=N)N)NC2=O)C(=O)NCCCC[C@@H]2NC(=O)[C@@H](Cc3ccc(O)cc3)NC(=O)[C@H](CC(=O)O)NC(=O)CNC(=O)[C@H](CCCNC(=N)N)NC2=O)C(=O)NCCCC[C@@H]2NC(=O)[C@@H](Cc3ccc(O)cc3)NC(=O)[C@H](CC(=O)O)NC(=O)CNC(=O)[C@H](CCCNC(=N)N)NC2=O)NC(=O)[C@@H](Cc2ccc(O)cc2)NC(=O)[C@H](CC(=O)O)NC(=O)CNC1=O [^68Ga-NOTA-RGD4, metal not drawn]
In vivo; athymic nude
  tissue uptake at 0.5 h: 3.4 ± 0.1 %ID/g
  tissue uptake at 1 h: 2.8 ± 0.1 %ID/g
  tissue uptake at 2 h: 2 ± 0.2 %ID/g
In vivo; nude
  tissue uptake at 5 min: 4.9 %ID/g
  tissue uptake at 0.25 h: 4.08 %ID/g
  tissue uptake at 0.5 h: 3.48 %ID/g
  tissue uptake at 1 h: 2.86 %ID/g
  tissue uptake at 2 h: 2.13 %ID/g
